Laboratory results published in US20250092056A1, “URACIL DERIVATIVES HAVING VIRUS REPLICATION INHIBITORY ACTIVITY AND PHARMACEUTICAL COMPOSITION COMPRISING THE SAME” (Shionogi & Co., Ltd., priority 2022, published 2025).
Like-named read-outs stand apart in the source and are kept apart here.

What was measured:
[1] = biological target: Recombinant SARS-CoV-2 3CL Protease (Severe acute respiratory syndrome coronavirus 2 (2019-nCoV) (SARS-CoV-2), UniProt P0DTD1); experiment: biochemical; assay type: biochemical; conditions: 50% SARS-CoV-2 3CL protease inhibitory concentration; read-out: IC50
SARS-CoV-2 = experiment: Cytopathic effect (CPE) suppression effect confirmation test using HEK293T/ACE2-TMPRSS2 cells; assay type: cell-based; conditions: Severe acute respiratory syndrome coronavirus 2, HEK-293T, 72 h
[2] = read-out: EC50 (50% SARS-CoV-2 infected cell death inhibitory concentration), class, HEK293T/ACE2-TMPRSS2 cells, CPE suppression, CellTiter-Glo 2.0 after 3 days culture
[3] = read-out: EC50 (50% SARS-CoV-2 infected cell death inhibitory concentration), HEK293T/ACE2-TMPRSS2 cells, CPE suppression, CellTiter-Glo 2.0 after 3 days culture
[4] = HEK293T/ACE2-TMPRSS2 cells, CPE suppression, CellTiter-Glo 2.0 after 3 days culture, read-out: EC50 (50% SARS-CoV-2 infected cell death inhibitory concentration), class

Row | Compound | IC50 [1] [µM] | EC50 (SARS-CoV-2; [2]) [µM] | EC50 (SARS-CoV-2; [3]) [µM] | EC50 (SARS-CoV-2; [4]) [µM]
1 | N#CCn1c(N2CC(F)(C3CC3)C2)c(-c2ccc(F)c(Cl)c2)c(=O)n(-c2cncc(Cl)c2)c1=O [Compound I-076] | < 0.01 | < 0.1 | – | –
2 | N#CCn1c(N2CC3(CC3)C2)c(-c2ccc(F)c(Cl)c2)c(=O)n(-c2cncc(Cl)c2)c1=O [Compound I-078] | < 0.01 | < 0.1 | – | –
3 | N#CCn1c(N2CC(c3nccs3)C2)c(-c2ccc(F)c(Cl)c2)c(=O)n(-c2cncc(Cl)c2)c1=O [Compound I-079] | < 0.01 | < 0.1 | – | –
4 | N#CCn1c(N2C[C@@H]3[C@@H](O)[C@@H]3C2)c(-c2ccc(F)c(Cl)c2)c(=O)n(-c2cncc(Cl)c2)c1=O [Compound I-082] | < 0.01 | < 0.1 | – | –
5 | N#CCn1c(N2CC(c3ccccc3)C2)c(-c2ccc(F)c(Cl)c2)c(=O)n(-c2cncc(Cl)c2)c1=O [Compound I-083] | < 0.01 | < 0.1 | – | –
6 | CC(C)OC1CN(c2c(-c3ccc(F)c(Cl)c3)c(=O)n(-c3cncc(Cl)c3)c(=O)n2CC#N)C1 [Compound I-084] | < 0.01 | < 0.1 | – | –
7 | N#CCn1c(N2CC(N3CCOCC3)C2)c(-c2ccc(F)c(Cl)c2)c(=O)n(-c2cncc(Cl)c2)c1=O [Compound I-085] | < 0.01 | < 0.1 | – | –
8 | N#CCn1c(N2CC(C(F)(F)F)C2)c(-c2ccc(F)c(Cl)c2)c(=O)n(-c2cncc(Cl)c2)c1=O [Compound I-086] | 0.0007 | – | 0.00331 | –
9 | N#CCn1c(N2CCC(O)(C(F)(F)F)CC2)c(-c2ccc(F)c(Cl)c2)c(=O)n(-c2cncc(Cl)c2)c1=O [Compound I-087] | < 0.01 | < 0.1 | – | –
10 | Cc1cncc(-n2c(=O)c(Cc3cc(F)c(F)c(F)c3)c(N3CC(F)C3)n(CC#N)c2=O)c1 [Compound I-090] | 0.01 to 0.1 | – | – | < 0.1
11 | Cc1cncc(-n2c(=O)c(Cc3cc(F)c(F)c(F)c3)c(N3CC4(CCOCC4)C3)n(CC#N)c2=O)c1 [Compound I-093] | 0.01 to 0.1 | – | – | < 0.1
12 | Cc1cncc(-n2c(=O)c(Cc3cc(F)c(F)c(F)c3)c(N3CC[C@@H](C(N)=O)C3)n(CC#N)c2=O)c1 [Compound I-096] | < 0.01 | < 0.1 | – | –
13 | Cc1cncc(-n2c(=O)c(Cc3cc(F)c(F)c(F)c3)c(N3CCN(C)C(=O)C3)n(CC#N)c2=O)c1 [Compound I-098] | < 0.01 | < 0.1 | – | –
14 | Cc1cncc(-n2c(=O)c(Cc3cc(F)c(F)c(F)c3)c(N3CC4(CCOC4)C3)n(CC#N)c2=O)c1 [Compound I-101] | < 0.01 | < 0.1 | – | –
15 | Cc1cncc(-n2c(=O)c(Cc3cc(F)c(F)c(F)c3)c(N3CCC(CO)CC3)n(CC#N)c2=O)c1 [Compound I-104] | < 0.01 | < 0.1 | – | –
16 | Cc1cncc(-n2c(=O)c(Cc3cc(F)c(F)c(F)c3)c(N3CC4(C3)CC(F)(F)C4)n(CC#N)c2=O)c1 [Compound I-105] | < 0.01 | < 0.1 | – | –
17 | COC1CCN(c2c(Cc3cc(F)c(F)c(F)c3)c(=O)n(-c3cncc(C)c3)c(=O)n2CC#N)CC1 [Compound I-106] | < 0.01 | < 0.1 | – | –
18 | Cc1cncc(-n2c(=O)c(Cc3cc(F)c(F)c(F)c3)c(N3CCC(C)(O)CC3)n(CC#N)c2=O)c1 [Compound I-109] | < 0.01 | < 0.1 | – | –
19 | Cc1cncc(-n2c(=O)c(Cc3cc(F)c(F)c(F)c3)c(N3CCC4(CCOCC4)C3)n(CC#N)c2=O)c1 [Compound I-111] | < 0.01 | < 0.1 | – | –
20 | Cc1cncc(-n2c(=O)c(Cc3cc(F)c(F)c(F)c3)c(N3CCC(C(N)=O)CC3)n(CC#N)c2=O)c1 [Compound I-112] | < 0.01 | 0.1 to 1 | – | –
21 | Cc1cncc(-n2c(=O)c(Cc3cc(F)c(F)c(F)c3)c(N3CCC4(CC3)CNC(=O)O4)n(CC#N)c2=O)c1 [Compound I-114] | < 0.01 | 0.1 to 1 | – | –
22 | Cc1cncc(-n2c(=O)c(Cc3cc(F)c(F)c(F)c3)c(N3CCC(O)(C(F)(F)F)CC3)n(CC#N)c2=O)c1 [Compound I-116] | < 0.01 | < 0.1 | – | –
23 | Cc1cncc(-n2c(=O)c(Cc3cc(F)c(F)c(F)c3)c(N3C[C@H]4CN(C)C[C@H]4C3)n(CC#N)c2=O)c1 [Compound I-117] | < 0.01 | < 0.1 | – | –

Row | Compound | IC50 [1] [µM] | EC50 (SARS-CoV-2; [2]) [µM] | EC50 (SARS-CoV-2; [3]) [µM] | EC50 (SARS-CoV-2; [4]) [µM]
24 | Cc1cncc(-n2c(=O)c(Cc3cc(F)c(F)c(F)c3)c(N3CCC(C(F)F)CC3)n(CC#N)c2=O)c1 [Compound I-118] | < 0.01 | < 0.1 | – | –
25 | Cc1cncc(-n2c(=O)c(Cc3cc(F)c(F)c(F)c3)c(N3CCC(C(F)(F)F)CC3)n(CC#N)c2=O)c1 [Compound I-119] | < 0.01 | < 0.1 | – | –
26 | Cc1cncc(-n2c(=O)c(-c3ccc(F)c(Cl)c3)c(-c3nc4ccccc4s3)n(CC#N)c2=O)c1 [Compound I-120] | < 0.01 | < 0.1 | – | –
27 | Cn1cnc(Cn2c(=O)c(-c3cccc(Cl)c3)c(N3Cc4ccccc4C3)n(CC#N)c2=O)n1 [Compound I-122] | > 0.1 | 1 to 5 | – | –
28 | N#CCn1c(N2Cc3ccccc3C2)c(-c2cccc(Cl)c2)c(=O)n(Cc2ccc[nH]c2=O)c1=O [Compound I-124] | < 0.01 | < 0.1 | – | –
29 | N#CCn1c(Cl)c(-c2ccc(F)c(Cl)c2)c(=O)n(-c2cnc3cc(Cl)ccn23)c1=O [Compound I-126] | > 0.1 | 1 to 5 | – | –
30 | N#CCn1c(N2CC3(CCOC3)C2)c(Cc2cc(F)c(F)c(F)c2)c(=O)n(-c2cnc3cnccn23)c1=O [Compound I-127] | > 0.1 | 1 to 5 | – | –
31 | N#CCn1c(N2CC3(CCOC3)C2)c(Cc2cc(F)c(F)c(F)c2)c(=O)n(-c2cnn3ccccc23)c1=O [Compound I-128] | > 0.1 | 0.1 to 1 | – | –
32 | N#CCn1c(N2CC3(CCOC3)C2)c(Cc2cc(F)c(F)c(F)c2)c(=O)n(-c2cnc3ccc(F)cn23)c1=O [Compound I-129] | 0.01 to 0.1 | – | – | 0.1 to 1
33 | N#CCn1c(N2CC3(CCOC3)C2)c(-c2ccc(F)c(Cl)c2)c(=O)n(-c2cnc3ccc(F)cn23)c1=O [Compound I-130] | < 0.01 | < 0.1 | – | –
34 | N#CCn1c(N2CC3(CCOC3)C2)c(-c2ccc(F)c(Cl)c2)c(=O)n(-c2cnc3cc(Cl)ccn23)c1=O [Compound I-131] | < 0.01 | < 0.1 | – | –
35 | Cc1cncc(-n2c(=O)c(-c3ccc(F)c(Cl)c3)c(-c3nc4ccccc4o3)n(CC#N)c2=O)c1 [Compound I-132] | < 0.01 | < 0.1 | – | –
36 | CC(C)(O)C1CN(c2c(-c3ccc(F)c(Cl)c3)c(=O)n(-c3cnc4cc(Cl)ccn34)c(=O)n2CC#N)C1 [Compound I-133] | 0.01 to 0.1 | – | – | < 0.1
37 | N#CCn1c(N2CC3(CC3)C2)c(-c2ccc(F)c(Cl)c2)c(=O)n(-c2cnc3cc(Cl)ccn23)c1=O [Compound I-134] | < 0.01 | < 0.1 | – | –
38 | N#CCn1c(N2CC(O)(C(F)(F)F)C2)c(-c2ccc(F)c(Cl)c2)c(=O)n(-c2cnc3cc(Cl)ccn23)c1=O [Compound I-135] | 0.01 to 0.1 | – | – | < 0.1
39 | N#CCn1c(N2CC(O)(C(F)(F)F)C2)c(-c2ccc(F)c(Cl)c2)c(=O)n(-c2cnc3cc(F)ccn23)c1=O [Compound I-136] | < 0.01 | < 0.1 | – | –
40 | CC1(O)CC2(CN(c3c(-c4ccc(F)c(Cl)c4)c(=O)n(-c4cnc5cc(F)ccn45)c(=O)n3CC#N)C2)C1 [Compound I-137] | 0.01 to 0.1 | – | – | 0.1 to 1
41 | CC1(O)CC2(CN(c3c(-c4ccc(F)c(Cl)c4)c(=O)n(-c4cnc5cc(Cl)ccn45)c(=O)n3CC#N)C2)C1 [Compound I-138] | 0.01 to 0.1 | – | – | 0.1 to 1
42 | N#CCn1c(N2CC(C(F)(F)F)C2)c(-c2ccc(F)c(Cl)c2)c(=O)n(-c2cnc3cc(Cl)ccn23)c1=O [Compound I-139] | 0.01 to 0.1 | – | – | < 0.1
43 | N#CCn1c(N2CC3(C2)CC(F)(F)C3)c(-c2ccc(F)c(Cl)c2)c(=O)n(-c2cnc3cc(Cl)ccn23)c1=O [Compound I-140] | < 0.01 | < 0.1 | – | –
44 | N#CCn1c(N2CCC(O)(C(F)(F)F)CC2)c(-c2ccc(F)c(Cl)c2)c(=O)n(-c2cnc3cc(Cl)ccn23)c1=O [Compound I-141] | 0.01 to 0.1 | – | – | < 0.1
45 | N#CCn1c(N2CC(O)(C(F)(F)F)C2)c(-c2ccc(F)c(Cl)c2)c(=O)n(-c2cncc(Cl)c2)c1=O [Compound I-142] | 0.00046 | – | 0.00335 | –
